Results: patent US10398781B2, “Conjugate based systems for controlled drug delivery” (SmartCells, Inc., priority 2009, dated 2019)

Experiments:
[1] = test system: blood glucose; experiment: Blood glucose depression profile after subcutaneous injection; assay type: in vivo, fasted normal non-diabetic rats (Male Sprague-Dawley); settings: sub-Q
[2] = test system: serum insulin and blood glucose levels; experiment: Effect of IP exogenous saccharide 15 minutes after sub-Q conjugate on PK/PD profile; assay type: in vivo, fasted normal non-diabetic rats (Male Sprague-Dawley)
[3] = test system: serum insulin and blood glucose levels; experiment: Effect of a-MM co-injected at the local sub-Q injection site; assay type: in vivo, non-diabetic, male SD rats; settings: 5 U/kg sub-Q
Protocol: In view of the data described in Example 42, we set out to determine whether the alpha-methyl mannose (a-MM) induced increase in serum conjugate concentration and bioactivity was a result of an increased rate of absorption from the subcutaneous injection site. The high affinity TSAT-C6-AETM-2 conjugate I-2 was used for this experiment. First, the conjugate was diluted to a concentration of 5 U/ml (0.2 mg/ml insulin equivalent) using either a buffered saline solution or a buffered saline solution containing 1 M a-MM. Each solution was injected sub-Q at a dose of 5 U/kg into the back of the neck of each of three non-diabetic, male SD rats at time 0 and blood samples were collected via tail vein bleeding at 0 minutes and at 15, 30, 45, 60, 90, 120, 150, 180, 240, and 300 minutes after injection. […] In this experiment, rats that received the a-MM conjugate solution also received an injection of buffered saline solution sub-Q at a separate hind quarter injection site at 15 minutes. Rats that received the saline conjugate solution also received an injection of a-MM solution sub-Q at a separate hind quarter injection site at 15 minutes.

[4] = Sugar-dependent i.v. elimination half-life in minipigs; assay type: in vivo, non-diabetic, male miniature swine (Yucatan strain); settings: pigs, 0.1 U/kg i.v.
[5] = test system: blood glucose; experiment: Glucose lowering after i.v. injection in minipigs with and without a-MM infusion; assay type: in vivo, non-diabetic male Yucatan minipigs; settings: 0.1 U/kg i.v.; for overall bioactivity (glucose lowering): minipigs
[6] = test system: blood glucose; experiment: Sub-Q injection in non-diabetic and alloxan-diabetic minipigs; assay type: in vivo, Yucatan minipigs
[7] = Accelerated stability testing (AST) aggregation assay; assay type: physicochemical; settings: PBS buffer
[8] = 0.25 ml of 20 U equivalent insulin/ml
[9] = sub-Q, II-2 0.25, 0.50, 1.00 U/kg, RHI 0.063 and 0.125 U/kg

Substance: insulin-dextran: comparative insulin-dextran (MW~70K) conjugate made by CNBr coupling per U.S. Patent Publication No. 20040202719
- duration of serum glucose depression post injection [1, 8]: at least five hours
- time to reach the glucose nadir (Tnadir) [1, 8]: about 3 hours

Substance: I-2: human insulin conjugated at B1 to TSAT-C6 framework with two AETM ligands
- effect of IP L-fucose on serum insulin profile ([2]; L-fucose IP 15 minutes after sub-Q injection): alpha-methyl mannose and L-fucose appear to exhibit the same kind of effect
- change in PK/PD profile from IP injection of alpha-methyl mannose vs. saline ([2]; a-MM IP 15 minutes after sub-Q injection): very significant (p<0.05)
- effect of IP galactose on serum insulin profile ([2]; galactose IP 15 minutes after sub-Q injection): no effect as compared to saline
- effect of IP glucose on serum insulin profile ([2]; glucose IP 15 minutes after sub-Q injection): small effect
- serum insulin and blood glucose with 1M a-MM co-injected vs. buffered saline [3]: the serum insulin levels do not increase and the blood glucose levels do not decrease

Substance: II-2: A1,B29-disubstituted insulin, TSAT-C6 frameworks, four AETM ligands
- increase in t1/2 in the presence of a-MM [4]: ~10 fold
- area over the glucose lowering curve in the presence of a-MM vs. absence of sugar [5]: approximately 2.6 ×
- a-MM induced bioactivity ([5]; a-MM infusion 25% w/v 80 ml/h): increased the a-MM induced bioactivity
- overall bioactivity (glucose lowering) [5]: reduced overall bioactivity
- duration of hypoglycemia-free glucose control in diabetic minipigs ([6]; single injection of approximately 0.5 U/kg): 6 to 8 h
- blood glucose in alloxan-diabetic, hyperglycemic minipigs [6, 9]: significant dose-dependent reduction in blood glucose levels
- hypoglycemia / glucose-lowering in non-diabetic minipigs [6, 9]: absolutely no hypoglycemia or signs of glucose-lowering

Substance: I-16: human insulin conjugated at B1 to TSPE framework with three AEM ligands
- AST aggregation stability compared with RHI [7]: greatly enhanced stability over pharmaceutical grade RHI

Substance: insulin-glycogen: comparative insulin-oyster glycogen (Type II) conjugate per U.S. Patent Application Publication No. 20070099820
- glucose depression profile / glucose lowering response ([1]; 2.5-5 U/kg): lower glucose levels much more rapidly and to a greater extent

Substance: I-12: human insulin conjugated at A1 to TSAT-C6 framework with two AETM ligands
- overall bioactivity (glucose lowering) [5]: slightly more effective in lowering glucose than conjugate I-6
